# US20220331348A1, “METHOD OF PREPARING PENTACYCLIC TRITERPENOID SAPONINS AND DRUG COMPOSITION” (CHINA PHARMACEUTICAL UNIVERSITY, priority 2019, published 2022)
# What was measured:
# [1] = tested on: ulcerative colitis model mice induced by DSS; experiment: Dextran sulphate sodium salt (DSS) induced ulcerative colitis model mice; assay type: in vivo, mouse; conditions: for DAI scores of the treatment group: DSS-induced mice, dose not given, vs model group
# Experimental: C57BL/6 male mice with 6-8 weeks old were selected; a control group was fed with purified water; and a model group, a treatment group and a positive control group were fed with purified water containing 2% dextran sulphate sodium salt (DSS) (36000-50000 M.Wt) for 7 days and then with the purified water for 3 days, and drug intervention was conducted at the same time. The mice in the control group and the model group were orally administered with carboxymethyl cellulose sodium as a placebo, the mice in the treatment group were orally administered with the ziyuglycoside II (purchased from Shanghai Boka Chemistry Technology Co., Ltd) (with a dosage of 5 mg/kg), and the mice in the positive control group were orally administered with 5-aminosalicylic acid as a clinical drug (5-ASA, purchased from Shanghai Sangon Biological Engineering Co., Ltd) (with a dosage of 100 mg/kg). In the administration process, weight changes, feces characters and hematochezia conditions of the mice were observed and recorded every day and were scored, and disease activity indexes were calculated (Disease activity index, DAI).
# A scoring rule and a calculation method were as follows: DAT=(weight score+diarrhea score+occult blood score)/3, wherein weight score: 0 (weight gained or unchanged), 1 (weight lost by 1-5%), 2 (weight lost by 6-10%), 3 (weight lost by 11-15%), 4 (weight lost by 15% or above); diarrhea score: 0 (normal feces), 2 (soft feces), 4 (feces sticking anuses or diarrhea); and occult blood score: 0 (negative occult blood), 2 (positive occult blood), and 4 (visible bleeding). Comparing differences in DAI of various groups, it can be known that the ziyuglycoside II has significant prevention and treatment effects on ulcerative colitis of the mice modeled by the dextran sulphate sodium salt (DSS).
# The above mice were sacrificed by cervical dislocation at day 11, colon tissues were harvested, lengths of the colon tissues were measured for statistical summary, and differences in colon length of various groups were compared, from which, the ziyuglycoside II has significant prevention and treatment effect on the ulcerative colitis model mice.
# Middle segments, with lengths of about 1 cm, of the colon tissues of the above mice were selected, soaked in a formalin solution for fixing overnight, embedded with paraffin and sliced, and the slices were subjected to HE staining. […] Particularly, compared with the positive drug group, the ziyuglycoside II has the advantage of maintaining a thickness of a muscular layer.
# 10 mg of proximal rectum segments of the colon tissues of the above mice were selected, PBS was added for homogenization, and centrifugation was conducted for taking a supernate. The supernate was subjected to ELISA detection, and protein quantification was conducted for inflammatory factors TNF-α and IL-lb.
# 10 mg of colon tissues of the above mice were selected for detection of ROS therein.
# When the ulcerative colitis occurs, the inflammatory factors may destruct tight junction between intestinal tracts, and destruction of the tight junction enables functions of mucosal barriers to be lost and accelerates development of the diseases. 5 mg of colon tissues of the above mice were selected for qPCR analysis. […] This hints that the ziyuglycoside II further has the efficacy of increasing the expression level of the tight junction and then protecting a structure of each colon. […] Therefore, the ziyuglycoside II is expected to be useful for preparing the drug for preventing or treating the inflammatory bowel diseases such as the ulcerative colitis.
# [2] = tested on: TNBS modeled Crohn's disease model mice; experiment: 2,4,6-trinitrobenzene sulfonic acid (TNBS) modeled Crohn's disease model mice; assay type: in vivo, mouse; conditions: for colon length of the treatment group compared with the control group / expression level of inflammatory factor IL-1β / expression level of inflammatory factor TNF-α: dose not given; for expression level of inflammatory factor IL-1β / expression level of inflammatory factor TNF-α: vs model group
# Experimental: C57BL/6 male mice with 6-8 weeks old were selected and randomly divided into a control group, a mode group, a treatment group and a positive control group. Expect for the control group, after the mice in the rest groups anesthetized with isoflurane, hoses were carefully inserted into colons of the mice from anuses, and […] of 1.5% 2,4,6-trinitrobenzene sulfonic acid (TNBS) was slowly injected. Before the hoses were pulled out, the mice were placed upside down for 1 min. First intragastric administration was conducted at the day of enema treatment, the mice in the control group and the model group were orally administered with carboxymethyl cellulose sodium as a placebo, the mice in the treatment group were orally administered with the ziyuglycoside II (purchased from Shanghai Boka Chemistry Technology Co., Ltd) (with a dosage of 5 mg/kg), and the mice in the positive drug group were orally administered with 5-aminosalicylic acid as a clinical drug (5-ASA, purchased from Shanghai Sangon Biological Engineering Co., Ltd) (with a dosage of 100 mg/kg). Administration was continuously conducted for 7 days. In the administration process, the states of the mice were observed every day, and weight changes of the mice were recorded.
# Differences in weight change of the mice in various groups were compared, from which, ziyuglycoside II has the treatment effect on the 2, 4, 6-trinitrobenzene sulfonic acid (TNBS) modeled Crohn's disease model mice.
# The above mice were sacrificed by cervical dislocation at day 8, colon tissues were harvested, lengths of the colon tissues were measured for statistical summary, and differences in colon length of various groups were compared, from which, the ziyuglycoside II has significant treatment effect on the Crohn's disease model mice. […] 10 mg of proximal rectum segments of the colon tissues of the above mice were selected, PBS was added for homogenization, and centrifugation was conducted for taking a supernate. The supernate was subjected to ELISA detection, and protein quantification was conducted for inflammatory factors TNF- and IL-1. […] Myeloperoxidase (MPO) is an enzyme specific to neutrophils, and the amount of the neutrophils in the intestinal tracts may be reflected by detecting the MPO level. 5 mg of proximal rectum segments of the colon tissues of the above mice were selected, PBS was added for homogenization, and the content of the MPO in a homogenate was detected with a MPO kit (purchased from Nanjing Jiancheng Bioengineering Institute). […] Therefore, the ziyuglycoside II is expected to be useful for preparing the drug for preventing or treating the inflammatory bowel diseases such as the Crohn's disease.
# [3] = tested on: human ADPKD cyst lining epithelial cell lines WT9-12; experiment: Proliferation of polycystic kidney epithelial cells (CCK-8 method); assay type: cell-based; conditions: polycystic kidney epithelial cells, 10 μM, 48 h, CCK-8, n = 6; for inhibition at 10 µM: Homo sapiens, Epithelial cell, read-out: Inhibition rate (%)
# From the text: Cell and reagent: complete media for human ADPKD cyst lining epithelial cell lines WT9-12 and DMEM were purchased from ATCC Company; fetal calf serums were purchased from Gibco Company; Cell Counting Kit-8 was purchased from DOJINDO Company; Click-iT® EdU Imaging Kits were purchased from Invitrogen™ Thermo Fisher Scientific Company; Caspase -3/CPP32 Colorimetric Assay Kit was purchased from BioVision Company; Annexin V/PI double-staining flow type cell apoptosis detection kits were purchased from Bender Company; and anti-Phospho-(AMPKa, mTOR, p70S6K, 4E-BP1) antibodies were purchased from Cell Signaling Technology Company.
# The influence of 2-DG on proliferation of the polycystic kidney epithelial cells was detected with a CCK-8 method: a DMEM complete medium containing 10% fetal calf serum (FBS) was prepared. The polycystic kidney epithelial cells were cultured in an incubator with 5% CO2 at 37° C. after being recovered, a solution was replaced every other day, the polycystic kidney epithelial cells were passaged every 2-3 days, and the cells were in a growing state of adhering to the wall. After trypsin enzyme digestion, cells were resuspended by using a complete medium, the concentration of a polycystic kidney epithelial cell suspension was regulated to be 3×10^7/L, the polycystic kidney epithelial cell suspension was inoculated to 96-well plate by […] per well for culture for 24 h, and the suspension was replaced by a culture medium containing 0.1% FBS for synchronization for 24 h.
# [4] = DSS mice, 5 mg/kg orally, vs model group (FIG. 12 A)
# [5] = DSS mice, 5 mg/kg, vs model group (FIG. 12 C)
# [6] = 5 mg/kg orally, vs model group (FIG. 14 A)
Compound,DAI scores of the treatment group [1],colon length of the treatment group compared with the control group [2],expression level of inflammatory factor IL-1β [2],expression level of inflammatory factor TNF-α [2],inhibition at 10 µM [3] [%],Inhibition rate (%) [3] [%],"content of the ROS in colon tissues ([1]; DSS mice, 5 mg/kg (FIG. 12 B))","colon histopathology (HE staining) ([1]; DSS mice, 5 mg/kg orally (FIG. 11))","colon lengths ([1]; DSS mice, 5 mg/kg orally, day 11, vs model group (FIG. 10 B))","DAI scores (disease activity index) ([1]; DSS mice, 5 mg/kg orally, vs model group (FIG. 10 A))","expression level of inflammatory factor IL-1 in colon tissue (ELISA) [1, 4]","expression level of inflammatory factor TNF-α in colon tissue (ELISA) [1, 4]","expression level of Claudin-1 in colon (qPCR) [1, 5]","expression level of Occludin in colon (qPCR) [1, 5]","expression level of ZO-1 in colon (qPCR) [1, 5]",content of the MPO in colon tissues ([2]; 5 mg/kg (FIG. 14 B)),"drop scope of weight loss ([2]; 5 mg/kg orally, 7 days, vs model group (FIG. 13 A))","colon lengths ([2]; 5 mg/kg orally, day 8, vs model group (FIG. 13 B))","expression level of inflammatory factor IL-1 in colon tissue (ELISA) [2, 6]","expression level of inflammatory factor TNF- in colon tissue (ELISA) [2, 6]"
"CC1(C)CC[C@]2(C(=O)O[C@@H]3O[C@H](CO)[C@@H](O)[C@H](O)[C@H]3O)CC[C@]3(C)C(=CC[C@@H]4[C@@]5(C)CC[C@H](O[C@@H]6O[C@H](C(=O)O)[C@@H](O)[C@H](O)[C@H]6O[C@@H]6O[C@H](CO)[C@@H](O)[C@H](O)[C@H]6O)C(C)(C)[C@@H]5CC[C@]43C)[C@@H]2C1 [(I), ginsenoside Ro]",obviously lower than those of the model group,nearly no difference,significantly lower than those of the model group,significantly lower than those of the model group,74.4 ± 2.3,–,–,–,–,–,–,–,–,–,–,–,–,–,–,–
"C[C@@H]1O[C@@H](O[C@H]2[C@H](O[C@H]3CC[C@@]4(C)[C@@H](CC[C@]5(C)[C@@H]4CC=C4[C@@H]6CC(C)(C)CC[C@]6(C(=O)O)CC[C@]45C)[C@]3(C)CO)OC[C@H](O)[C@@H]2O)[C@H](O)[C@H](O)[C@H]1O [(X), α-hederin]",obviously lower than those of the model group,nearly no difference,significantly lower than those of the model group,significantly lower than those of the model group,80.5 ± 3.2,–,–,–,–,–,–,–,–,–,–,–,–,–,–,–
"C[C@@H]1O[C@@H](O[C@H]2[C@H](O[C@H]3CC[C@@]4(C)[C@@H](CC[C@]5(C)[C@@H]4CC=C4[C@@H]6CC(C)(C)CC[C@]6(C(=O)O[C@@H]6O[C@H](CO[C@@H]7O[C@H](CO)[C@@H](O[C@@H]8O[C@@H](C)[C@H](O)[C@@H](O)[C@H]8O)[C@H](O)[C@H]7O)[C@@H](O)[C@H](O)[C@H]6O)CC[C@]45C)[C@]3(C)CO)OC[C@H](O)[C@@H]2O)[C@H](O)[C@H](O)[C@H]1O [(XI), hederacoside C]",obviously lower than those of the model group,nearly no difference,significantly lower than those of the model group,significantly lower than those of the model group,–,64.4 ± 2.6,–,–,–,–,–,–,–,–,–,–,–,–,–,–
"C[C@H]1O[C@@H](O[C@H]2CC[C@@]3(C)[C@@H](CC[C@]4(C)[C@@H]3C=C[C@]35OC[C@@]6(CCC(C)(C)C[C@H]63)[C@H](O)C[C@]54C)[C@]2(C)CO)[C@H](O)[C@@H](O[C@@H]2O[C@H](CO)[C@@H](O)[C@H](O)[C@H]2O)[C@H]1O [(VIII), saikosaponin D]",obviously lower than those of the model group,nearly no difference,significantly lower than those of the model group,significantly lower than those of the model group,–,–,–,–,–,–,–,–,–,–,–,–,–,–,–,–
"C[C@@H]1CC[C@]2(C(=O)O)CC[C@]3(C)C(=CC[C@@H]4[C@@]5(C)CC[C@H](O[C@@H]6OC[C@H](O)[C@H](O)[C@H]6O)C(C)(C)[C@@H]5CC[C@]43C)[C@@H]2[C@]1(C)O [(XIII), ziyuglycoside II]",obviously lower than those of the model group,nearly no difference,significantly lower than those of the model group,significantly lower than those of the model group,72.1 ± 2,–,significantly lowered,infiltration of the inflammatory cells is reduced,significantly larger than those of the model group,obviously lower than that of the model group,significantly lower than those of the model group,significantly lower than those of the model group,significantly increased,significantly increased,significantly increased,significantly lowered,obviously lower than that of the model group,significantly larger than those of the model group,significantly lower than those of the model group,significantly lower than those of the model group
"C[C@H]1O[C@@H](O[C@H]2CC[C@@]3(C)[C@@H](CC[C@]4(C)[C@@H]3C=C[C@]35OC[C@@]6(CCC(C)(C)C[C@H]63)[C@@H](O)C[C@]54C)[C@]2(C)CO)[C@H](O)[C@@H](O[C@@H]2O[C@H](CO)[C@@H](O)[C@H](O)[C@H]2O)[C@H]1O [(VII), saikosaponin A]",obviously lower than those of the model group,nearly no difference,significantly lower than those of the model group,significantly lower than those of the model group,–,–,–,–,–,–,–,–,–,–,–,–,–,–,–,–
